In this experiment the test system is S. Typhi PhoP-promoter GFP reporter, fluorescence, 4 h. As to the kind of experiment: modified counter assay using GFP fluorescence, PhoP regulon inhibitor project, dose response (AID 1985).

The term IC50 denotes the concentration that inhibits the measured activity by half. In the case of `COc1ccccc1CNCCc1ccc(F)cc1`, the half-maximal inhibitory concentration (IC50) is 36 µM. As for `Nc1[nH]ncc1-c1ccccc1`, the IC50 is 31.9 µM.

Turning to `NC(N)=Nc1nc(-c2ccccc2)c2cc(Cl)ccc2n1`, the IC50 was 97.8 µM. As for `Oc1cccc(C=NCc2ccccc2)c1O`, the half-maximal inhibitory concentration (IC50) was 57.7 µM. Consider `O=C(Nc1ccc(-c2nc3ccccc3[nH]2)cc1)c1ccco1`, for which the IC50 is 87 µM. With `O=C(CSc1ccccn1)Nc1nonc1[N+](=O)[O-]`, the IC50 was 43.5 µM.

Regarding `O=C(CC(=O)c1ccccc1O)c1cccc(F)c1`, the IC50 was 37.9 µM. For `CC(NCc1ccc(Cl)c(Cl)c1)C(O)c1ccccc1` (configuration not stated) the value was 82.3 µM. `Cc1ccc(NC(=O)c2ccc([N+](=O)[O-])o2)c(C)c1`: the IC50 was 38.9 µM.

For `O=C(N/N=C/c1c[nH]c2ccccc12)c1cc2ccccc2o1`, the IC50 was 33.5 µM. As for `O=[N+]([O-])c1cccc2c(N3CCCC3)ccnc12`, the IC50 was 17.6 µM.

As to `O=C(N/N=C/c1cc(Br)ccc1O)c1ccccc1Cl`, the 50% inhibitory concentration (IC50) was 82.8 µM. For `O=c1[nH]cc(F)c(=O)[nH]1` the value was 0.378 µM; for `O=C(C[n+]1ccc(-c2ccccc2)cc1)Nc1ccc([N+](=O)[O-])cc1`, 27.3 µM; for `O=C(N/N=C/c1cc(Cl)ccc1O)c1cccnc1`, 28.2 µM. Consider `CN(Cc1ccccc1)CC(O)COc1ccc(CNCc2ccc(Cl)s2)cc1` (configuration not stated), for which the IC50 is 39.1 µM. Turning to `COc1ccc(C(=O)NC(=S)NNC(=O)c2cccc(C)c2)cc1`, the half-maximal inhibitory concentration (IC50) is 46.8 µM. On to `Cc1[nH]c2ccc(OC(F)(F)F)cc2c1CCNCc1ccc(Cl)cc1`, for which the half-inhibitory concentration (IC50) is 36.3 µM.

As to `CC(C)C1N=C(c2ccc3c(c2)OCO3)CC(c2ccccc2O)N1` (configuration not stated), the IC50 is 121 µM. With `c1ccc(Nc2ccnc(Nc3ccccc3)n2)cc1`, the half-inhibitory concentration (IC50) is 67.2 µM.

`Cc1cc(/C=C\c2ccc3cc(N(C)C)ccc3[n+]2C)c(C)n1-c1ccccc1`: the IC50 was 32 µM. With `O=C(NC(CO)C(O)c1ccc([N+](=O)[O-])cc1)C(Cl)Cl` (configuration not stated), the half-inhibitory concentration (IC50) was 2.55 µM.

For the molecule `O=C(Cn1cncn1)N/N=C/c1ccccc1O`, the IC50 is 103 µM. Take `NC1=NC[C@H](c2ccccc2)N1CCc1cc(C(F)(F)F)cc(C(F)(F)F)c1`: the concentration for half-maximal inhibition (IC50) is 55.9 µM.

On to `CC(=O)NNC(=S)NC(=O)c1ccccc1`, for which the IC50 was 22.7 µM. For `OC(CNCCc1ccccc1)COc1ccc(OCC(O)CNCCc2ccccc2)cc1` (configuration not stated), the IC50 was 21.2 µM. For `O=C(CCN1CCN(c2ccccc2)CC1)c1ccc(Br)cc1` the value was 98.6 µM; for `Oc1c(I)cc(Cl)c2cccnc12`, 8.07 µM. For `O=C(Nc1cccc(N=Cc2cc(Cl)cc(Br)c2O)c1)c1ccco1` the value was 94.3 µM; for `Cc1ccc(-c2cc(-c3ccc(C)cc3)[n+](-c3ccccc3)c(-c3ccc(C)cc3)c2)cc1`, 34.5 µM; for `O=C(Nc1nc(-c2ccccn2)cs1)c1ccc(Br)s1`, 20.1 µM. For the molecule `COc1cc(CNCCO)cc(Cl)c1OCc1ccc(Cl)cc1Cl`, the IC50 is 39 µM. With `CCn1cc(C(=O)NCCCN(C)C)c(=O)c2cc(F)c(N3CCN(C)CC3)cc21`, the half-maximal inhibitory concentration (IC50) is 35.5 µM. Consider `O=C(N/N=C/c1ccccc1O)c1ccncc1`, for which the half-inhibitory concentration (IC50) was 24.7 µM.

Regarding `CCCCCc1ccc(OCCC[n+]2ccccc2)c(CCCCC)c1`, the IC50 was 82.7 µM. As to `Cc1ccc2nc(N(CCCN(C)C)C(=O)c3ccc4c(c3)CCCC4)sc2c1`, the 50% inhibitory concentration (IC50) was 78.5 µM. In the case of `CCCCCCCCCCCCCCCC[n+]1cccc(C(=O)N(CC)CC)c1`, the half-inhibitory concentration (IC50) was 20.1 µM. Turning to `Nc1nc2ccccc2n1Cc1ccc(Cl)c(Cl)c1`, the IC50 was 54.6 µM. Turning to `CC(=O)OC1=C(O)C(=O)c2ccccc2C1=O`, the IC50 is 78.6 µM. On to `COc1ccc(-c2cnc(NCc3cc4c(cc3[N+](=O)[O-])OCO4)n2C)cc1`, for which the half-inhibitory concentration (IC50) is 107 µM. As for `Nc1cc(Cl)c2nonc2c1[N+](=O)[O-]`, the IC50 is 19.6 µM. With `CC12CN3CC(C)(CN(C1)C3c1ccc(Br)cc1O)C2` (configuration not stated), the IC50 was 133 µM. Regarding `Cc1cc(C(C)(C)CC(C)(C)C)ccc1OCCOCC[N+](C)(C)Cc1ccccc1`, the IC50 is 31.6 µM.

In the case of `O=C(Nc1nonc1NC(=O)c1cccs1)c1cccs1`, the half-inhibitory concentration (IC50) was 100 µM. For `CCCc1nnc(NC(=O)c2cn(CC)c3cc(N4CCN(C)CC4)c(F)cc3c2=O)s1` the value was 41.2 µM. Regarding `N#C/C(=N\Nc1ccc([N+](=O)[O-])cc1)C(N)=S`, the IC50 was 110 µM. For `CCOc1cc(C(c2c(C)[nH][nH]c2=O)c2c(C)[nH][nH]c2=O)cc([N+](=O)[O-])c1O` the value was 75.6 µM.

Consider `CCn1cc(C(=O)O)c(=O)c2cc(F)c(N3CCN(C(=S)NC(=O)c4ccccc4)CC3)cc21`, for which the half-inhibitory concentration (IC50) was 24 µM. For `COc1ccc(NC(=O)COC(=O)c2ccc([N+](=O)[O-])o2)cc1Cl` the value was 46.8 µM.

Turning to `CCOC(=O)N/N=C\c1ccc([N+](=O)[O-])o1`, the IC50 is 23.7 µM. For `Cc1c(CCOC(=O)C2C3CC4CC(C3)CC2C4)sc[n+]1CC(=O)c1ccc(Br)cc1` (configuration not stated) the value was 56.9 µM; for `Cc1ccc2nc(/C(C#N)=C\c3ccc([N+](=O)[O-])o3)[nH]c2c1`, 23.3 µM; for `Nc1ncn(C2O[C@H](CO)[C@@H](O)[C@H]2O)c(=O)n1` (some centres not stated), 10.1 µM. For `C[C@H]1c2cccc(O)c2C(O)=C2C(=O)[C@]3(O)C(O)=C(C(N)=O)C(=O)[C@@H](N(C)C)[C@@H]3[C@@H](O)[C@@H]21`, the IC50 was 1.97 µM.

Turning to `CCn1cc(C(=O)O)c(=O)c2cc(F)c(N3CCN(C(=S)NC(=O)c4cccc(F)c4)CC3)cc21`, the IC50 was 27.2 µM. Regarding `CN1C(=O)NC(c2cccc(O)c2)C(C(=O)c2cccs2)C1(O)C(F)(F)F` (configuration not stated), the IC50 is 40.6 µM.

As for `CCN1CCN(C(=O)c2cc3cc(Cl)ccc3[nH]2)CC1`, the IC50 was 67.4 µM. For `CCOc1ccc(Nc2nc(N)c3ccccc3n2)cc1`, the IC50 was 44.5 µM. As to `O=C(NC1CCCC1)c1ccc(Br)s1`, the half-maximal inhibitory concentration (IC50) is 34 µM. For the molecule `CCOc1cccc(/C=N/NC(=O)c2cc(C3CC3)[nH]n2)c1O`, the half-maximal inhibitory concentration (IC50) was 136 µM. Regarding `O=c1c(O)cccc2cc(O)c(O)c(O)c12`, the IC50 is 17.5 µM.

`CCN(CC(=O)NC(C)(C)C)C(=O)COc1c(Cl)cc(Cl)c2ccc(C)nc12`: the IC50 is 43.5 µM. For the molecule `Cc1ccccc1Nc1cc(C)c2c(O)cccc2n1`, the IC50 was 25.5 µM. Regarding `C/C(=N\N=C(N)N)c1ccc(Cl)c(Cl)c1`, the concentration for half-maximal inhibition (IC50) is 51.5 µM. `CCCOc1ccc(C(=O)NNC(=S)NC(=O)CC)cc1`: the half-inhibitory concentration (IC50) is 78.8 µM. `O=C(CC1NCCc2ccccc21)Nc1ccc(Oc2ccccc2)cc1` (configuration not stated): the IC50 was 79.9 µM. For `Cc1[nH]n(-c2ccccc2)c(=O)c1C(c1cccc([N+](=O)[O-])c1O)c1c(C)[nH]n(-c2ccccc2)c1=O` the value was 48.5 µM; for `CN(C)c1ccc2nc3ccc(=[N+](C)C)cc-3sc2c1`, 22.7 µM; for `Cc1cc(C)c2nc(C)cc(N/N=C/c3ccc(O)cc3)c2c1`, 49.7 µM. As for `O=C(N/N=C/c1c(O)ccc2ccccc12)c1ccc(CO)nc1`, the IC50 was 80.1 µM. Consider `Cc1c(N=Cc2cc(Br)cc(Br)c2O)cccc1C(=O)O`, for which the IC50 was 77.5 µM. Regarding `Cc1cc(OCC(O)CNC(C)c2ccccc2)ccc1C(C)C` (configuration not stated), the IC50 was 82.6 µM. Take `C#CCOCCOCCOCCNc1nc(N2CCN(C(=O)CCCCCCCCCCNC(=O)[C@H]([C@@H](C)CC)n3cc(CCCCN=C(N)N)nn3)CC2)nc(N2CCN(C(=O)CCCCCCCCCCNC(=O)[C@H](CO)n3cc(CCCCCN)nn3)CC2)n1`: the IC50 is 32.8 µM. On to `O=C(/C=C/c1ccccc1)c1ccc(NC2=NCCCS2)cc1`, for which the IC50 was 117 µM. With `O=C(CC(=O)c1c(F)cccc1Cl)c1ccccc1O`, the IC50 was 41.4 µM. As to `CCCC(=O)NC(c1ccco1)c1cc([N+](=O)[O-])c2cccnc2c1O` (configuration not stated), the IC50 was 8.65 µM. For `Oc1c(CN2CCCCC2)cc(Br)c2cccnc12`, the IC50 is 19.8 µM.

`CC1(C)N=C(N)N=C(N)N1c1ccc(Oc2ccc(Cl)cc2)c(Cl)c1`: the half-inhibitory concentration (IC50) is 43 µM. For `NC(=O)SCC(=O)Nc1ccc(Cl)cc1`, the IC50 is 45.1 µM. On to `COc1cc2c(cc1OC)[C@H](Cc1ccc(O)cc1)NCC2`, for which the IC50 was 87 µM. In the case of `O=c1c2ccccc2[nH]c2ccc(F)cc12`, the concentration for half-maximal inhibition (IC50) is 71.2 µM. For `COc1c(N2CCN(C(=S)NCc3ccccc3)C(C)C2)c(F)cc2c(=O)c(C(=O)O)cn(C3CC3)c12` (configuration not stated) the value was 10.8 µM. For `CC(=O)NC(c1cccc([N+](=O)[O-])c1)c1ccc2cccnc2c1O` (configuration not stated) the value was 98.9 µM; for `CCCCCCCCCCn1c2c(c(=N)c3c1CCC3)CCC2`, 144 µM.

Take `CC1COc2c(N3CCN(C)CC3)c(F)cc3c(=O)c(C(=O)O)cn1c23` (configuration not stated): the IC50 was under 0.23 µM.

With `Cc1occc1C(=O)N/N=C/C=C/c1ccccc1`, the IC50 was 41.6 µM. Take `CCc1ccc(CNCc2ccc(OCC(O)CN(C)Cc3ccccc3)cc2)nc1` (configuration not stated): the IC50 was 146 µM.

As to `N#C/C(N=Nc1ccccc1O)=N\Nc1ccccc1O`, the concentration for half-maximal inhibition (IC50) was 9.47 µM.

`CN(C)c1ccc(Nc2nc(N)c3ccccc3n2)cc1`: the IC50 was 62.4 µM.

As for `NC1=NC[C@H](c2ccccc2)N1CCCCC1CCCCC1`, the half-inhibitory concentration (IC50) was 38.5 µM. For `N=c1n(CCN2CCCCC2)c2ccccc2n1CC(O)c1ccc(Cl)c(Cl)c1` (configuration not stated), the concentration for half-maximal inhibition (IC50) was 64.1 µM. Consider `O=C(/C=C/c1ccc(F)cc1)NC(=S)NNC(=O)c1cnccn1`, for which the half-maximal inhibitory concentration (IC50) is 20.4 µM. In the case of `O=C(N/N=C/c1cc(Br)ccc1O)c1ccncc1`, the half-inhibitory concentration (IC50) was 29.9 µM. For the molecule `Cc1ccc(C(=O)N/N=C\c2ccc([N+](=O)[O-])s2)cn1`, the half-maximal inhibitory concentration (IC50) is 20 µM. Turning to `CCOc1cccc(CNCCc2c(C)[nH]c3ccc(OC(F)(F)F)cc23)c1O`, the 50% inhibitory concentration (IC50) is 76.2 µM. For `CCN1/C(=C/C=C/C=C/c2sc3ccccc3[n+]2CC)Sc2ccccc21` the value was 30.9 µM; for `N#Cc1nc(Cc2cccc3ccccc23)oc1NCCCN1CCOCC1`, 62 µM; for `CCCCOc1ccc(C(=O)NNC(=S)NC(=O)CC)cc1`, 38.9 µM. As to `O=C(Nc1cccc([N+](=O)[O-])c1)Nc1cccs1`, the concentration for half-maximal inhibition (IC50) was 45.6 µM. As for `CC1(CC(=O)N/N=C/c2cc([N+](=O)[O-])c(O)cc2O)OCCO1`, the 50% inhibitory concentration (IC50) is 38.4 µM. With `Fc1ccccc1CCNCc1ccccc1`, the IC50 is 45.7 µM. Take `O=C(C[n+]1cc(-c2ccc(Cl)c(Cl)c2)n2c1CCC2)N1c2ccccc2Sc2ccccc21`: the IC50 was 78.2 µM.
